Reference: US12115224B2, “Polypeptide conjugates for intracellular delivery of stapled peptides” (Ohio State Innovation Foundation, priority 2017, dated 2024)
Several values for one entry are separate records, joined by “and”; a condition that tells them apart may be missing. Equal values may be shown once. Numbered stars: 1 amine (or outer) side, 2 acyl side, 3 side chain; on linkers, the order of the positions; unused ones are H or OH. Bridge positions count the residues as written; N and C are the ends. Square brackets hold non-standard residues; d marks the D form. Peptide text beside a SMILES is read from it. I, II: the chains in the order shown. * marks the point of attachment. X2 = NC(=O)[C@H](CCCCNC(=O)c1cc(C[*:1])cc(C[*:2])c1)NC(=O)COCCOCCN[*:3]; X1 = O=C1OC2(c3ccc(C(=O)*)cc31)c1ccc3cc(O)ccc3c1Oc1c2ccc2cc(O)ccc12; X3 = NC(=O)[C@H](CCCCNC(=O)CON=C(C[*:1])C[*:2])NC(=O)COCCOCCN[*:3]; FITC = O=C1OC2(c3ccc(O)cc3Oc3cc(O)ccc32)c2ccc(NC(=S)*)cc21; 2Nal = N[C@@H](Cc1ccc2ccccc2c1)C(=O)O; mXylylene = c1cc(C[*:1])cc(C[*:2])c1; NF = 5(6)-carboxynaphthofluorescein; CH2COCH2 = O=C(C[*:1])C[*:2]; hCys = N[C@@H](CCS)C(=O)O; K(NF) = not defined here; AEEA = NCCOCCOCC(=O)O; βAla = NCCC(=O)O

How the values were obtained:
MDM2 [1] = target: T1, MDM2 (Homo sapiens, UniProt Q00987); experiment: Direct binding of FITC-labeled peptides to MDM2 (KD); conditions: relative to the parent peptide
HeLa cells = experiment: Cytosolic entry efficiency of NF-labeled peptides by flow cytometry; conditions: NF-labeled peptide 5 μM, 2 h, 37° C., 10% FBS; relative to CPP9 (100%)
Experimental: Flow Cytometry. HeLa cells were seeded in 12-well plates at 1.5×10^5 cells per well for 24 h. The next day, naphthofluorescein-labelled peptide (5 μM) was added to the cells in DMEM medium supplemented with 10% fetal bovine serum (FBS) and 1% penicillin/streptomycin and the cells were incubated at 37° C. for 2 h in the presence of 5% CO2. The medium containing the peptide was removed and the cells were washed with DPBS twice. […] Data were analyzed using the Flowjo software (Tree Star).

HCT116 p53+/+ = experiment: MTT viability assay, HCT116 WT p53; type: cell-based, human; conditions: 0-12.5 μM, 48 h, 10% FBS
Experimental: (§1) Peptides 4 and 5 were tested for anticancer activity against human colon carcinoma cell lines harboring WT (HCT116 p53+/+) and mutant p53 genes (HCT116 p53−/−) using the MTT viability assay. […] See Vassilev, L. T., et al., Science, 303, 844-848 (2004).
(§2) MTT Assay. HCT116 p53 wild type and HCT116 p53^−/− cells were seeded in 96-well plate with 3×10^3 cells per well, and allowed to grow overnight. Different concentrations of peptides (0-12.5 μM) were added to the cells in McCoy's 5A medium supplemented with 10% FBS and 1% penicillin/streptomycin and incubated at 37° C. for 48 h in the presence of 5% CO2. After that, 10 μL of an MTT stock solution (5 mg/mL) was added into each well and the plate was incubated at 37° C. for 4 h. 100 μL of SDS-HCl solubilizing solution was added and the plate was incubated at 37° C. overnight. The absorbance of the formazan product formed was measured at 570 nm on a Tecan microtiter plate reader.

HCT116 p53−/− = experiment: MTT viability assay, HCT116 p53-/-; type: cell-based, human; conditions: 0-12.5 μM, 48 h, 10% FBS
Experimental: as §1, §2

MDM2 [2] = target: T1, MDM2; experiment: Fluorescence anisotropy (FA)-based competition with FITC-labeled peptide 1 for binding to MDM2; conditions: unlabeled peptides 4 and 5
Description: Expression and Purification of GST-MDM2.

fold decrease of MDM2 binding affinity (MDM2 [1]) [fold] | Compound | Cellular Uptake (MFI^NF, %) (HeLa cells) | other results
~2.5 | CC(=O)N[C@@H](CC(C)C)C(=O)N[C@H](C(=O)N[C@@H](Cc1ccccc1)C(=O)N[C@H]1CSCc2cccc(c2)CSC[C@@H](C(=O)N[C@@H](CCC(N)=O)C(=O)N[C@@H](CC(C)C)C(=O)N[C@H](C(=O)N[C@@H](CO)C(=O)NCCOCCOCC(=O)N[C@@H](CCCCNC(=O)c2ccc3c(c2)C(=O)OC32c3ccc4cc(O)ccc4c3Oc3c2ccc2cc(O)ccc32)C(N)=O)[C@@H](C)O)NC(=O)[C@H](Cc2c[nH]c3ccccc23)NC(=O)[C@H](Cc2ccc(O)cc2)NC(=O)[C@H](Cc2c[nH]cn2)NC1=O)[C@@H](C)O [Peptide 6] (Ac-LTFCHYWCQLTS[AEEA]K(X1)-NH2; linker 4-8 via mXylylene) |  | 
6 | CC(=O)N[C@@H](CCC(=O)O)C(=O)N[C@H](C(=O)N[C@@H](Cc1ccccc1)C(=O)N[C@H]1CSCc2cc(cc(C(=O)NCCCC[C@H](NC(=O)COCCOCCNC(=O)CC[C@@H]3NC(=O)[C@@H](CCCNC(=N)N)NC(=O)[C@H](CCCNC(=N)N)NC(=O)[C@@H](CCCNC(=N)N)NC(=O)[C@H](CCCNC(=N)N)NC(=O)[C@H](Cc4ccc5ccccc5c4)NC(=O)[C@@H](Cc4ccccc4)NC3=O)C(N)=O)c2)CSC[C@@H](C(=O)N[C@@H](CCC(N)=O)C(=O)N[C@@H](CC(C)C)C(=O)N[C@H](C(=O)N[C@@H](CO)C(=O)NCCOCCOCC(=O)N[C@@H](CCCCNC(=O)c2ccc3c(c2)C(=O)OC32c3ccc4cc(O)ccc4c3Oc3c2ccc2cc(O)ccc32)C(N)=O)[C@@H](C)O)NC(=O)[C@H](Cc2c[nH]c3ccccc23)NC(=O)[C@H](Cc2ccc(O)cc2)NC(=O)[C@H](Cc2c[nH]cn2)NC1=O)[C@@H](C)O [Peptide 11] (I: Ac-ETFCHYWCQLTS[AEEA]K(X1)-NH2 / II: cyclo([2Nal]R[dR]R[dR]E[dF]); linker I:4-I:8-II:6 via X2) |  | 
~2 | CC(=O)N[C@@H](CC(C)C)C(=O)N[C@H](C(=O)N[C@@H](Cc1ccccc1)C(=O)N[C@H]1CSCc2cc(cc(C(=O)NCCCC[C@H](NC(=O)COCCOCCNC(=O)CC[C@@H]3NC(=O)[C@@H](CCCNC(=N)N)NC(=O)[C@H](CCCNC(=N)N)NC(=O)[C@@H](CCCNC(=N)N)NC(=O)[C@H](CCCNC(=N)N)NC(=O)[C@H](Cc4ccc5ccccc5c4)NC(=O)[C@@H](Cc4ccccc4)NC3=O)C(N)=O)c2)CSC[C@@H](C(=O)N[C@@H](CCC(N)=O)C(=O)N[C@@H](CC(C)C)C(=O)N[C@H](C(=O)N[C@@H](CO)C(=O)NCCOCCOCC(=O)N[C@@H](CCCCNC(=O)c2ccc3c(c2)C(=O)OC32c3ccc4cc(O)ccc4c3Oc3c2ccc2cc(O)ccc32)C(N)=O)[C@@H](C)O)NC(=O)[C@H](Cc2c[nH]c3ccccc23)NC(=O)[C@H](Cc2ccc(O)cc2)NC(=O)[C@H](Cc2c[nH]cn2)NC1=O)[C@@H](C)O [Peptide 7] (I: Ac-LTFCHYWCQLTS[AEEA]K(X1)-NH2 / II: cyclo([2Nal]R[dR]R[dR]E[dF]); linker I:4-I:8-II:6 via X2) |  | 
~8 | CC(=O)N[C@@H](CC(C)C)C(=O)N[C@H](C(=O)N[C@@H](Cc1ccccc1)C(=O)N[C@H]1CCSCc2cc(cc(C(=O)NCCCC[C@H](NC(=O)COCCOCCNC(=O)CC[C@@H]3NC(=O)[C@@H](CCCNC(=N)N)NC(=O)[C@H](CCCNC(=N)N)NC(=O)[C@@H](CCCNC(=N)N)NC(=O)[C@H](CCCNC(=N)N)NC(=O)[C@H](Cc4ccc5ccccc5c4)NC(=O)[C@@H](Cc4ccccc4)NC3=O)C(N)=O)c2)CSCC[C@@H](C(=O)N[C@@H](CCC(N)=O)C(=O)N[C@@H](CC(C)C)C(=O)N[C@H](C(=O)N[C@@H](CO)C(=O)NCCOCCOCC(=O)N[C@@H](CCCCNC(=O)c2ccc3c(c2)C(=O)OC32c3ccc4cc(O)ccc4c3Oc3c2ccc2cc(O)ccc32)C(N)=O)[C@@H](C)O)NC(=O)[C@H](Cc2c[nH]c3ccccc23)NC(=O)[C@H](Cc2ccc(O)cc2)NC(=O)[C@H](Cc2c[nH]cn2)NC1=O)[C@@H](C)O [Peptide 9, Ac-LTFhCHYWhCQLTS-miniPEG-K(NF)-NH2] (I: Ac-LTF[hCys]HYW[hCys]QLTS[AEEA]K(X1)-NH2 / II: cyclo(R[dR]E[dF][2Nal]R[dR]); linker I:4-I:8-II:3 via X2) |  | 

Further lines, the compound ahead of its results:

Compound | fold decrease of MDM2 binding affinity (MDM2 [1]) [fold] | Cellular Uptake (MFI^NF, %) (HeLa cells) | other results
CC(=O)N[C@@H](CC(C)C)C(=O)N[C@H](C(=O)N[C@@H](Cc1ccccc1)C(=O)N[C@H]1CCSCc2cccc(c2)CSCC[C@@H](C(=O)N[C@@H](CCC(N)=O)C(=O)N[C@@H](CC(C)C)C(=O)N[C@H](C(=O)N[C@@H](CO)C(=O)NCCOCCOCC(=O)N[C@@H](CCCCNC(=O)c2ccc3c(c2)C(=O)OC32c3ccc4cc(O)ccc4c3Oc3c2ccc2cc(O)ccc32)C(N)=O)[C@@H](C)O)NC(=O)[C@H](Cc2c[nH]c3ccccc23)NC(=O)[C@H](Cc2ccc(O)cc2)NC(=O)[C@H](Cc2c[nH]cn2)NC1=O)[C@@H](C)O [Peptide 8, Ac-LTFhCHYWhCQLTS-miniPEG-K(NF)-NH2] (Ac-LTF[hCys]HYW[hCys]QLTS[AEEA]K(X1)-NH2; linker 4-8 via mXylylene) |  |  | fold improvement of MDM2 binding affinity (MDM2 [1]): 5 fold
NF-βA-NPECILDCHVQRVM-NH2 [18] ({NF-βAla}-NPECILDCHVQRVM-NH2; bridge 4-8; not fully specified (bridges)) [Peptide 18] |  | 8.9% and 8.9 ± 2.9% | 
NF-βA-ENPECILDCHVQRVM-NH2 [16] ({NF-βAla}-ENPECILDCHVQRVM-NH2; bridge 5-9; not fully specified (bridges)) [Peptide 16] |  | 2.5% and 2.5 ± 0.5% | 
Ac-ETFCHYWCQLTS-miniPEG-K(NF)-NH2 (Ac-ETFCHYWCQLTS-{miniPEG-K(NF)-NH2}; linker 4-8 via xylene; reading uncertain; also: printed as Ac-ETFCHYWCQLTS-miniPEG-K(NF)-NH2) [Peptide 10] |  | 2.8% and 2.8 ± 0.1% | 
COc1ccc(C2=N[C@@H](c3ccc(Cl)cc3)[C@@H](c3ccc(Cl)cc3)N2C(=O)N2CCNC(=O)C2)c(OC(C)C)c1 [Nutlin-3, reference compound] |  |  | effect on viability of WT p53 cells (HCT116 p53+/+): selectively killed the WT p53 cells in a dose-dependent manner
NF-βA-RKFCRLFC-NH2 [14] ({NF-βAla}-RKFCRLFC-NH2; bridge 4-8; not fully specified (bridges)) [Peptide 14] |  | 47% and 47 ± 9% | 
CC(=O)N[C@@H](CC(C)C)C(=O)N[C@H](C(=O)N[C@@H](Cc1ccccc1)C(=O)N[C@H]1CCSCC(=O)CSCC[C@@H](C(=O)N[C@@H](CCC(N)=O)C(=O)N[C@@H](CC(C)C)C(=O)N[C@H](C(=O)N[C@@H](CO)C(=O)NCCOCCOCC(=O)N[C@@H](CCCCNC(=S)Nc2ccc3c(c2)C(=O)OC32c3ccc(O)cc3Oc3cc(O)ccc32)C(N)=O)[C@@H](C)O)NC(=O)[C@H](Cc2c[nH]c3ccccc23)NC(=O)[C@H](Cc2ccc(O)cc2)NC(=O)[C@H](Cc2c[nH]cn2)NC1=O)[C@@H](C)O [Peptide 2] (Ac-LTF[hCys]HYW[hCys]QLTS[AEEA]K(FITC)-NH2; linker 4-8 via CH2COCH2) |  |  | effect on viability of WT p53 cells (HCT116 p53+/+): no significant effect; effect on viability of p53 mutant cells (HCT116 p53−/−): no significant effect
CC(=O)N[C@@H](CC(C)C)C(=O)N[C@H](C(=O)N[C@@H](Cc1ccccc1)C(=O)N[C@H]1CCSCC(=NOCC(=O)NCCCC[C@H](NC(=O)COCCOCCNC(=O)CC[C@@H]2NC(=O)[C@@H](CCCNC(=N)N)NC(=O)[C@H](CCCNC(=N)N)NC(=O)[C@@H](CCCNC(=N)N)NC(=O)[C@H](CCCNC(=N)N)NC(=O)[C@H](Cc3ccc4ccccc4c3)NC(=O)[C@@H](Cc3ccccc3)NC2=O)C(N)=O)CSCC[C@@H](C(=O)N[C@@H](CCC(N)=O)C(=O)N[C@@H](CC(C)C)C(=O)N[C@H](C(=O)N[C@@H](CO)C(=O)NCCOCCOCC(=O)N[C@@H](CCCCN)C(N)=O)[C@@H](C)O)NC(=O)[C@H](Cc2c[nH]c3ccccc23)NC(=O)[C@H](Cc2ccc(O)cc2)NC(=O)[C@H](Cc2c[nH]cn2)NC1=O)[C@@H](C)O [Peptide 4] (I: Ac-LTF[hCys]HYW[hCys]QLTS[AEEA]K-NH2 / II: cyclo([2Nal]R[dR]R[dR]E[dF]); linker I:4-I:8-II:6 via X3) |  |  | IC50 (MDM2 [2]): 220 nM
CC(=O)N[C@@H](CC(C)C)C(=O)N[C@H](C(=O)N[C@@H](Cc1ccccc1)C(=O)N[C@H]1CCSCC(=NOCC(=O)NCCCC[C@H](NC(=O)COCCOCCNC(=O)CC[C@@H]2NC(=O)[C@@H](CCCNC(=N)N)NC(=O)[C@H](CCCNC(=N)N)NC(=O)[C@@H](CCCNC(=N)N)NC(=O)[C@H](CCCNC(=N)N)NC(=O)[C@H](Cc3ccc4ccccc4c3)NC(=O)[C@@H](Cc3ccccc3)NC2=O)C(N)=O)CSCC[C@@H](C(=O)N[C@@H](CCC(N)=O)C(=O)N[C@@H](CC(C)C)C(=O)N[C@H](C(=O)N[C@@H](CO)C(=O)NCCOCCOCC(=O)N[C@@H](CCCCN)C(N)=O)[C@@H](C)O)NC(=O)[C@H](Cc2c[nH]c3ccccc23)NC(=O)[C@H](Cc2ccc(O)cc2)NC(=O)[C@H](Cc2c[nH]cn2)NC1=O)[C@@H](C)O [Peptide 5] (I: Ac-LTF[hCys]HYW[hCys]QLTS[AEEA]K-NH2 / II: cyclo([2Nal]R[dR]R[dR]E[dF]); linker I:4-I:8-II:6 via X3) |  |  | IC50 (MDM2 [2]): 201 nM
